# Experimental data as given in patent US20050215531A1, “Use of edg receptor binding agents in cancer” (priority 2002, published 2005).
# Test system: HUVEC
# Test: S1P-mediated HUVEC tube formation assay
# Type: cell-based, human
# Settings: branching points in 3 independent fields at 4× magnification
# Experimental: For the tube formation assay, HUVEC from passage 2-8 are used and are never greater than 70% confluent before harvesting. Cells are prepared for the assay by washing with Herpes Balanced Saline Solution (HBSS from Clonetics) and then trypsinizing with Trypsin/EDTA (0.25 mg/ml, from Clonetics). After approximately 90% of the cells have lifted off the plate, an equal volume of Trypsin Neutralizing Solution (TNS from Clonetics) is added and the cells are collected into a conical tube containing at least 10 ml of EBM-2 (Clonetics)+0.1% BSA (Sigma) media Cells are centrifuged at 1000 rpm for 5 minutes and the supematant is removed and replaced with 5 ml of fresh EBM-2+0.1% BSA. Cells are counted using a hemacytometer and the volume of the cell suspension is adjusted to achieve a concentration of 500,000 cells/ml. Conical tubes are prepared with test compounds at 100 nM, and pertussin toxin (PTx) at 10 ng/ml in each, then 1 ml of the cell suspension is added to each tube. Tubes are then incubated for ½ hour at 37° C., 5% CO2. The migration assay is performed using Fluoro-Blok 24-Multiwell insert Plates coated with fibronectin (8 μm pore size, Falcon #351147) instead of the individual inserts in a 24-well plate. Cells and test compounds are prepared and pre-incubated as described above, then 100 μl is added to each approriate well in the Insert Plate. 300 μl of the EBM-2+2% charcoastripped media without S1P is added to the bottoms of the wells marked for no stimulation (−), and 300 μl of the media containing S1P (500 nM) is added to the bottoms of the wells marked for stimulation (+). The plate is then incubated for 4 hours at 37° C., 5% CO2. […]
# After incubation, the plate is read on a Cytofluor II at an excitation of 485 nm and emission of 530 nm. The Fluoro-Blok coating in the inserts allows only the cells that have migrated to the bottom to be counted. […]
# Tube formation is quantitated by counting the number of branching points (two independent cords connecting) in 3 independent fields at 4× magnification.
structure (smiles),measurement,setting,value
CCCCCCCCc1ccc(CCC(N)(CO)COP(=O)(O)O)cc1 (centres unmarked) [Compound A-phosphate],Branching Points,treatment + S1P,14 ± 7
same,Branching Points,treatment alone,48 ± 15
